{"source": "paper PMC5431875", "about": "“In situ click chemistry generation of cyclooxygenase-2 inhibitors” (Nature Communications, 2017)", "key": {"[1]": {"molecular_target": "T1, COX-2 in HCA-7 cells (Homo sapiens, UniProt P35354)", "T1 construct": "endogenous in cells; host or cells: HCA-7", "T1 sequence (P35354 18-604)": "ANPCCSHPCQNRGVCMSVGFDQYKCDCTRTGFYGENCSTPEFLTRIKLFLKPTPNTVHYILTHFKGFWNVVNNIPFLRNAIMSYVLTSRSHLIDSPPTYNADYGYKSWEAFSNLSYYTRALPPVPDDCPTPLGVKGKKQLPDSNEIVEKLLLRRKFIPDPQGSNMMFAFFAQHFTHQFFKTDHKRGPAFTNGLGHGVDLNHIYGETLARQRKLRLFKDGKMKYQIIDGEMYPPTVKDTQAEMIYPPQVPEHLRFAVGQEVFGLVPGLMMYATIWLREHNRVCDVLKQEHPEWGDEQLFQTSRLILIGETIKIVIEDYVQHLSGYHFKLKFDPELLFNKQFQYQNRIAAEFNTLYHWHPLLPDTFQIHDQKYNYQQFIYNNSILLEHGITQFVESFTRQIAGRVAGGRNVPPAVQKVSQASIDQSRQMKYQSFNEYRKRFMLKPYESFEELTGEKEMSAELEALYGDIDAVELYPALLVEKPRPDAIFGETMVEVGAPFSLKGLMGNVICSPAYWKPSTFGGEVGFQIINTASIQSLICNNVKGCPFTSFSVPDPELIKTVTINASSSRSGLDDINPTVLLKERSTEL", "test": "Cellular COX-2 inhibitory activity (PGE2 ELISA) in HCA-7 cells", "type": "cell-based", "settings": "mean of three determinations, read-out: Cell COX-2 IC50", "experimental": "Based on the in vitro COX-2 inhibitory data, seventeen compounds (Table 2) were selected and further evaluated for their cellular COX-2 inhibitory activity in COX-2 expressing colorectal cancer cell line HCA-7. […]\nHCA-7 cells (colorectal cancer cell line, COX-2 expression is confirmed with immunoblotting). The HCA-7 cells were cultured in T75 flasks using DMEM/F12 (1:1) medium supplemented with 10% (v/v) fetal bovine […]\nwere washed three times for 5 min with 1 ml PBS. Cells were negatively tested for mycoplasma contamination either by the vendor or in house. […]\nvehicle (solvent) at concentration range of 10−9 M to 10−3 M. After 30 min incubation the reaction was stopped on ice and supernatants were taken and COX-2 mediated production of PGE2 was immediately determined […]\nconcentration is quantified by following manufacturer assay procedure. All experiments were done three times and ±s.e.m. were calculated.\nThe PRISM5 software was used to calculate IC50 values."}, "[2]": {"molecular_target": "T2, ovine COX-1 (Ovis aries, UniProt P05979)", "T2 sequence (P05979 25-600)": "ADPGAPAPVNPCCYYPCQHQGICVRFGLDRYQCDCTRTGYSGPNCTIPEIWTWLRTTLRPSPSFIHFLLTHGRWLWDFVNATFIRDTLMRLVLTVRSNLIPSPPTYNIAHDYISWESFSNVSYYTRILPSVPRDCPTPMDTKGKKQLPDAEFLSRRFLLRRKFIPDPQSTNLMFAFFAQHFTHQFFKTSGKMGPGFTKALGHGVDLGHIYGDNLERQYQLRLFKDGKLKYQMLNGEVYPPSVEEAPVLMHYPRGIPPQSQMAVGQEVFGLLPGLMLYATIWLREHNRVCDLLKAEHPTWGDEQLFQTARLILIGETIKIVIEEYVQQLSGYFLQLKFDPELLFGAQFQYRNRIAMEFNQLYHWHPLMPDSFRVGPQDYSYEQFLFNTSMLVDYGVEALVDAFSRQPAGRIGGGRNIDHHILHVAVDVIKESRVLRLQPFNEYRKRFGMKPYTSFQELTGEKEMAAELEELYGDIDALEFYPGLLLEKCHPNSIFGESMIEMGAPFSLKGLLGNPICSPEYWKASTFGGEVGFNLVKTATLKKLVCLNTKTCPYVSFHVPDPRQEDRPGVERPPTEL", "test": "COX inhibitor assay (Cayman 700100), COX-1"}, "[3]": {"test": "Stability in human serum", "type": "in vitro ADME", "settings": "37 °C, up to 30 h", "experimental": "Stock solutions of compounds 5, 14, 18 and 21 (10 mM) were prepared in DMSO for molecular biology. A Solution of each compound (10 mM) was added to freshly thaw human serum (from human male AB plasma, USA origin, sterile-filtered, Sigma– Aldrich) at 37 °C; the final concentration of the compound was 100 µM. The resulting solution was incubated at 37 °C and at various time intervals (0 to 30 h) 200 µL reaction mixture samples was taken and added to 200 µL of acetonitrile containing 0.1% trifluoroacetic acid in order to deproteinize the proteins. Into each sample mixture, 10 μL of an internal standard solution (2 mM solution in methanol) was added. Sample mixture was sonicated, vortexed and then centrifuged for 15 min. at 2150 × g. The clear supernatant was transferred into the fresh tube for LCMS analysis, with a similar method described for the in situ click LC-MS studies. […]"}, "[4]": {"molecular_target": "T3, recombinant human COX-2 (Homo sapiens, UniProt P35354)", "T3 sequence (P35354 18-604)": "T1 sequence (P35354 18-604)", "test": "COX inhibitor assay (Cayman 700100), COX-2", "settings": "for COX-2 SI (selectivity index): (COX-1 IC50)/(COX-2 IC50)"}, "[5]": {"test": "Stability in rat serum", "type": "in vitro ADME", "settings": "37 °C, up to 30 h"}, "[6]": {"molecular_target": "T4, pure human COX-2 protein (Homo sapiens, UniProt P35354)", "T4 sequence (P35354 18-604)": "T1 sequence (P35354 18-604)", "test": "Isothermal titration calorimetry", "type": "binding", "settings": "ITC", "experimental": "The thermodynamics of the precursor 5-azido-pyrazole (14) binding with pure human COX-2 protein studied with a high sensitivity ITC instrument (VP-ITC, MicroCal). All titrations were performed by following VP-ITC general procedure described in manual. Protein (20 µM) and ligand (200 µM) solution were prepared in PBS buffer, pH 7.4. Prior to each ITC run, all solutions were filtered using membrane filters (pore size 0.45 μm) and thoroughly stirred and degassed using Thermovac accessory for 20 min to remove any air bubbles at 25 °C. In a typical experiment, aliquots (6 µl) of ligand solution (prepared at 10 times the COX-2 protein concentration) were injected with a computer-controlled stirrer-syringe into a reaction cell containing COX-2 protein. Titrations were carried out with a stirring speed of 400 rpm and 240 s intervals between injections. All experiments were conducted at 25 °C. Control experiments, including titration of the ligand into buffer alone or COX-2 protein into buffer alone, were carried to determine the heat due to dilution and subtracting during the original experiment. Calorimetric data analysis was performed with ORIGIN software provided by MicroCal. All results, including the binding constant (K a), stoichiometry of binding (N), and thermodynamics of binding (ΔH and TΔS) were determined by fitting the experimental binding isotherms."}}}
{"compound": "[N-]=[N+]=Nc1cc(-c2ccccc2)nn1-c1ccccc1", "note": "[Compound 5, 5-azido-1,3-diphenyl-1H-pyrazole]", "values": [{"measurement": "IC50", "setting": "[1]", "result": "> 1", "unit": "µM"}, {"measurement": "IC50", "setting": "[2]", "result": "> 100", "unit": "µM"}, {"measurement": "Stability in human serum", "setting": "[3]", "result": "no significant degradation"}, {"measurement": "IC50", "setting": "[4]", "result": 18.1, "unit": "µM"}, {"measurement": "COX-2 SI (selectivity index)", "setting": "[4]", "result": ">5.5"}, {"measurement": "Stability in rat serum", "setting": "[5]", "result": "no significant degradation"}]}
{"compound": "Cc1cc(N=[N+]=[N-])n(-c2ccc(S(C)(=O)=O)cc2)n1", "note": "[Compound 14, 5-azido-1-(4-methanesulfonyl-phenyl)-3-methyl-1H-pyrazole]", "values": [{"measurement": "IC50", "setting": "[1]", "result": 10, "unit": "µM"}, {"measurement": "IC50", "setting": "[2]", "result": "> 100", "unit": "µM"}, {"measurement": "Stability in human serum", "setting": "[3]", "result": "no significant degradation"}, {"measurement": "IC50", "setting": "[4]", "result": 4.4, "unit": "µM"}, {"measurement": "COX-2 SI (selectivity index)", "setting": "[4]", "result": ">22.7"}, {"measurement": "Stability in rat serum", "setting": "[5]", "result": "no significant degradation"}, {"measurement": "Enthalpy change, ΔH", "setting": "[6]; 298.15 K", "result": -8.248, "unit": "kcal/mol"}, {"measurement": "Entropy change, TΔS", "setting": "[6]; 298.15 K", "result": 0.404, "unit": "kcal/mol"}, {"measurement": "Free energy change, ΔG", "setting": "[6]; 298.15 K", "result": -8.652, "unit": "kcal/mol"}, {"measurement": "Binding stoichiometry, N", "setting": "[6]; PBS pH 7.4, 25 °C", "result": "1.02 ± 0.0259"}, {"measurement": "melting point", "result": "131 to 133", "unit": "°C"}]}
{"compound": "CS(=O)(=O)c1ccc(-n2nc(-c3ccccc3)cc2N=[N+]=[N-])cc1", "note": "[Compound 27, 5-azido-1-(4-methanesulfonyl-phenyl)-3-phenyl-1H-pyrazole]", "values": [{"measurement": "Stability in human serum", "setting": "[3]", "result": "no significant degradation"}, {"measurement": "Stability in rat serum", "setting": "[5]", "result": "no significant degradation"}]}
{"compound": "Cc1cc(N=[N+]=[N-])n(-c2ccccc2)n1", "note": "[Compound 31, 5-azido-3-methyl-1-phenyl-1H-pyrazole]", "values": [{"measurement": "Stability in human serum", "setting": "[3]", "result": "no significant degradation"}, {"measurement": "Stability in rat serum", "setting": "[5]", "result": "no significant degradation"}, {"measurement": "melting point", "result": "123 to 125", "unit": "°C"}]}
